molecular target: human PDE10 (Homo sapiens (Human), UniProt Q9Y233); assay: Evaluation of enzyme inhibitory activity: human PDE10 inhibitory effect (IMAP TR-FRET); assay type: biochemical; conditions: cAMP substrate
Method: (Evaluation of Enzyme Inhibitory Activity: Human PDE10 Inhibitory Effect)
IMAP TR-FRET Phosphodiersterase Evaluation Assay Kit (Molecular Device) was used for the measurement. Ten μL of a diluted test compound having each concentration and 5 μL of the enzyme PDE10 (BPA Bioscience) that had been diluted to 2 ng/mL with 1×IMAP Reaction Buffer (prepared with 5×included with the kit, 10 mM Tris-HCl, pH=7.2, 10 mM MgCl2, 0.05% NaN3, and 0.1% BSA) containing 0.1% BSA were added to a 384-well plate (Corning). The obtained mixture was then pre-incubated at room temperature for 5 minutes. Thereafter, 5 μL of cAMP substrate solution which was included with the kit and diluted to 400 nM with 1×IMAP Reaction Buffer containing 0.1% BSA, was added to the reaction solution, and the obtained mixture was reacted at room temperature for 60 minutes. Thereafter, 60 μL of an IMAP TR-FRET Binding solution included with the kit was further added to the reaction solution, and the obtained mixture was then left for 3 hours or more. Subsequently, using ARVO SX (PerkinElmer), the fluorescent intensity of Terbium (Emission=490 nm) and TR-FRET (Emission=520 nm) in the reaction solution were measured at an excitation wavelength of 340 nm, so as to calculate the amount of the generated 5′-AMP. The count of a well to which a solvent had been added instead of the test compound was set at 0%, and the count of a well to which the enzyme PDE10 had not been added was set at 100%. Thus, the inhibitory activity of each test compound was calculated.
The PDE10 inhibitory activity of the test compound was indicated with an IC50 value. […] The test compounds are shown in Table 3 (Table 3-1 and Table 3-2).

human PDE10, sequence (Q9Y233 whole entry): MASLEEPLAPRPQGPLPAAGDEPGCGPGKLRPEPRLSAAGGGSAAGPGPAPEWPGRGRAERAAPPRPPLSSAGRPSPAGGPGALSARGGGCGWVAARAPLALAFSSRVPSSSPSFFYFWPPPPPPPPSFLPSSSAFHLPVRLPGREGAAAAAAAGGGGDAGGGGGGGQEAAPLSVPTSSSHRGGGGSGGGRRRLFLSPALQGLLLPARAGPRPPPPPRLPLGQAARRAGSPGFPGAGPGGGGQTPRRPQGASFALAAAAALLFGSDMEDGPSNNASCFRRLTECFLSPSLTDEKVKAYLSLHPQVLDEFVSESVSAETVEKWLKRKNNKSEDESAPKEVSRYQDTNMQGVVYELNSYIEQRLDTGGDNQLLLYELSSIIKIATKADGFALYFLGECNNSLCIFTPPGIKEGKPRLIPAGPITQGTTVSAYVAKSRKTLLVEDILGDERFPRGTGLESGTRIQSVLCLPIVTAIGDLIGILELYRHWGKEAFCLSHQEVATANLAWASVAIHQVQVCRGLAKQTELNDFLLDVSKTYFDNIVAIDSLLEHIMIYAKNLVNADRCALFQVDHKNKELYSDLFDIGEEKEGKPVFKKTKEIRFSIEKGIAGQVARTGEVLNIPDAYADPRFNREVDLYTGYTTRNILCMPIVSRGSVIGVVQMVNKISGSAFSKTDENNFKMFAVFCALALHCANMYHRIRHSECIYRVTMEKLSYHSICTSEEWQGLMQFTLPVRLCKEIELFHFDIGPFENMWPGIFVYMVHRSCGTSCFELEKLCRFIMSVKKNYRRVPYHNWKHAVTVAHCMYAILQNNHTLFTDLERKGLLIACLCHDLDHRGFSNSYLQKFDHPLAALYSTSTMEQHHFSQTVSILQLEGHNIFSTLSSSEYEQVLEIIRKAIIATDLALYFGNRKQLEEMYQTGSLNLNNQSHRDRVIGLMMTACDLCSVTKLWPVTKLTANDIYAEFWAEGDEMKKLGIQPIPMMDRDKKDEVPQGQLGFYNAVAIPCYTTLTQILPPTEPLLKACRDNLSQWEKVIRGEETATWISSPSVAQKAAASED

SMILES | IC50
Cc1cncnc1-c1cnn(C)c1C(=O)Nc1cc2nc(-c3ccccc3)nn2cc1F [Example 3.33, N-(6-fluoro-2-phenyl-[1,2,4]triazolo[1,5-a]pyridin-7-yl)-1-methyl-4-(5-methylpyrimidin-4-yl)-1H-pyrazole-5-carboxamide] | < 5 nM
Cn1ncc(-c2nc(C(F)(F)F)cs2)c1C(=O)Nc1ccn2nc(N3CCCC3)nc2c1 [Example 4.34, 1-methyl-N-(2-(pyrrolidin-1-yl)-[1,2,4]triazolo[1,5-a]pyridin-7-yl)-4-(4-(trifluoromethyl)thiazol-2-yl)-1H-pyrazole-5-carboxamide] | < 5 nM
Cc1cccc(-c2cnn(C)c2C(=O)Nc2ccn3nc(N4CCC[C@@H]4C)nc3c2)n1 [Example 4.7, (S)-1-methyl-4-(6-methylpyridin-2-yl)-N-(2-(2-methylpyrrolidin-1-yl)-[1,2,4]triazolo[1,5-a]pyridin-7-yl)-1H-pyrazole-5-carboxamide] | < 5 nM
Cc1ncnc(-c2cnn(C)c2C(=O)Nc2cc3nc(-c4ccccc4)nn3cc2F)c1F [Example 3.38, N-(6-fluoro-2-phenyl-[1,2,4]triazolo[1,5-a]pyridin-7-yl)-4-(5-fluoro-6-methylpyrimidin-4-yl)-1-methyl-1H-pyrazole-5-carboxamide] | < 5 nM
Cc1sc(-c2cnn(C)c2C(=O)Nc2ccn3nc(N4CCCC4)nc3c2)nc1C(F)F [Example 4.33, 4-(4-(difluoromethyl)-5-methylthiazol-2-yl)-1-methyl-N-(2-(pyrrolidin-1-yl)-[1,2,4]triazolo[1,5-a]pyridin-7-yl)-1H-pyrazole-5-carboxamide] | < 5 nM
CCc1sc(-c2cnn(C)c2C(=O)NC2CCn3nc(-c4ccccc4)nc3C2)nc1C(F)F (stereo not drawn) [Example 5.6, 4-(4-(difluoromethyl)-5-ethylthiazol-2-yl)-1-methyl-N-(2-phenyl-5,6,7,8-tetrahydro-[1,2,4]triazolo[1,5-a]pyridin-7-yl)-1H-pyrazole-5-carboxamide] | < 5 nM
COc1nccc(-c2cnn(C)c2C(=O)Nc2cc3nc(-c4ccccc4)nn3cc2F)n1 [Example 3.26, N-(6-fluoro-2-phenyl-[1,2,4]triazolo[1,5-a]pyridin-7-yl)-4-(2-methoxypyrimidin-4-yl)-1-methyl-1H-pyrazole-5-carboxamide] | < 5 nM
Cn1ncc(-c2nc(C(F)F)c(Cl)s2)c1C(=O)Nc1ccn2nc(N3CCCC3)nc2c1 [Example 4.26, 4-(5-chloro-4-(difluoromethyl)thiazol-2-yl)-1-methyl-N-(2-(pyrrolidin-1-yl)-[1,2,4]triazolo[1,5-a]pyridin-7-yl)-1H-pyrazole-5-carboxamide] | < 5 nM
Cn1ncc(-c2nc(C(F)F)cs2)c1C(=O)Nc1ccn2nc(N3CC[C@@H](F)C3)nc2c1 [Example 4.12, (R)-4-(4-(difluoromethyl)thiazol-2-yl)-N-(2-(3-fluoropyrrolidin-1-yl)-[1,2,4]triazolo[1,5-a]pyridin-7-yl)-1-methyl-1H-pyrazole-5-carboxamide] | < 5 nM
Cc1sc(-c2cnn(C)c2C(=O)NC2CCn3cc(-c4ccccc4)nc3C2)nc1C(F)F (stereo not drawn) [Example 2.6, 4-(4-(difluoromethyl)-5-methylthiazol-2-yl)-1-methyl-N-(2-phenyl-5,6,7,8-tetrahydroimidazo[1,2-a]pyridin-7-yl)-1H-pyrazole-5-carboxamide] | < 5 nM
COc1cncnc1-c1cnn(C)c1C(=O)Nc1cc2nc(-c3ccccc3)nn2cc1F [Example 3.34, N-(6-fluoro-2-phenyl-[1,2,4]triazolo[1,5-a]pyridin-7-yl)-4-(5-methoxypyrimidin-4-yl)-1-methyl-1H-pyrazole-5-carboxamide] | < 5 nM
Cc1cncc(-c2cnn(C)c2C(=O)NC2CCn3cc(-c4ccccc4)nc3C2)n1 (stereo not drawn) [Example 2.13, 1-methyl-4-(6-methylpyrazin-2-yl)-N-(2-phenyl-5,6,7,8-tetrahydroimidazo[1,2-a]pyridin-7-yl)-1H-pyrazole-5-carboxamide] | < 5 nM
Cc1nccc(-c2cnn(C)c2C(=O)Nc2cc3nc(-c4ccccc4)nn3cc2F)n1 [Example 3.25, N-(6-fluoro-2-phenyl-[1,2,4]triazolo[1,5-a]pyridin-7-yl)-1-methyl-4-(2-methylpyrimidin-4-yl)-1H-pyrazole-5-carboxamide] | < 5 nM
Cc1sc(-c2cnn(C)c2C(=O)Nc2ccn3nc(N4CC[C@H](F)C4)nc3c2)nc1C(F)F [Example 4.23, (S)-4-(4-(difluoromethyl)-5-methylthiazol-2-yl)-N-(2-(3-fluoropyrrolidin-1-yl)-[1,2,4]triazolo[1,5-a]pyridin-7-yl)-1-methyl-1H-pyrazole-5-carboxamide] | < 5 nM
C=Cc1sc(-c2cnn(C)c2C(=O)NC2CCn3nc(-c4ccccc4)nc3C2)nc1C(F)F (stereo not drawn) [Example 5.5, 4-(4-(difluoromethyl)-5-vinylthiazol-2-yl)-1-methyl-N-(2-phenyl-5,6,7,8-tetrahydro-[1,2,4]triazolo[1,5-a]pyridin-7-yl)-1H-pyrazole-5-carboxamide] | < 5 nM
Cn1ncc(-c2nc(C(F)F)cs2)c1C(=O)Nc1ccn2nc(-c3ccccc3)nc2c1 [Example 3.15, 4-(4-(difluoromethyl)thiazol-2-yl)-1-methyl-N-(2-phenyl-[1,2,4]triazolo[1,5-a]pyridin-7-yl)-1H-pyrazole-5-carboxamide] | < 5 nM
Cc1cnc(C)c(-c2cnn(C)c2C(=O)Nc2cc3nc(-c4ccccc4)nn3cc2F)n1 [Example 3.14, 4-(3,6-dimethyl-pyrazin-2-yl)-N-(6-fluoro-2-phenyl-[1,2,4]triazolo[1,5-a]pyridin-7-yl)-1-methyl-1H-pyrazole-5-carboxamide] | < 5 nM

Further lines, results first:

IC50 | SMILES
< 5 nM | Cc1cc(C)nc(-c2cnn(C)c2C(=O)Nc2cc3nc(N4CC[C@H](F)C4)nn3cc2F)c1 [Example 4.24, (S)-4-(4,6dimethylpyridin-2-yl)-N-(6-fluoro-2-(3-fluoropyrrolidin-1-yl)-[1,2,4]triazolo[1,5-a]pyridin-7-yl)-1-methyl-1H-pyrazole-5-carboxamide]
< 5 nM | Cc1ncc(F)c(-c2cnn(C)c2C(=O)Nc2cc3nc(-c4ccccc4)nn3cc2F)n1 [Example 3.36, 4-(5-fluoro-2-methylpyrimidin-4-yl)-N-(6-fluoro-2-phenyl-[1,2,4]triazolo[1,5-a]pyridin-7-yl)-1-methyl-1H-pyrazole-5-carboxamide]
< 5 nM | Cn1ncc(-c2nc(C(F)F)cs2)c1C(=O)NC1CCn2cc(-c3ccccc3)nc2C1 (stereo not drawn) [Example 2.4, 4-(4-(difluoromethyl)thiazol-2-yl)-1-methyl-N-(2-phenyl-5,6,7,8-tetrahydroimidazo[1,2-a]pyridin-7-yl)-1H-pyrazole-5-carboxamide]
< 5 nM | Cc1sc(-c2cnn(C)c2C(=O)NC2CCn3nc(-c4ccc(F)cc4)nc3C2)nc1C(F)F (stereo not drawn) [Example 5.36, 4-(4-(difluoromethyl)-5-methylthiazol-2-yl)-N-(2-(4-fluorophenyl)-5,6,7,8-tetrahydro-[1,2,4]triazolo[1,5-a]pyridin-7-yl)-1-methyl-1H-pyrazole-5-carboxamide]
< 5 nM | Cn1ncc(-c2nc(C(F)F)c(Cl)s2)c1C(=O)NC1CCn2nc(-c3ccccc3)nc2C1 (stereo not drawn) [Example 5.29, 4-(5-chloro-4-(difluoromethyl)thiazol-2-yl)-1-methyl-N-(2-phenyl-5,6,7,8-tetrahydro-[1,2,4]triazolo[1,5-a]pyridin-7-yl)-1H-pyrazole-5-carboxamide]
< 5 nM | Cc1cccc(-c2cnn(C)c2C(=O)Nc2ccn3nc(N4CC[C@H](F)C4)nc3c2)n1 [Example 4.21, (S)-N-(2-(3-fluoropyrrolidin-1-yl)-[1,2,4]triazolo[1,5-a]pyridin-7-yl)-1-methyl-4-(6-methylpyridin-2-yl)-1H-pyrazole-5-carboxamide]
< 5 nM | Cn1ncc(-c2nc(C(F)(F)F)cs2)c1C(=O)NC1CCn2cc(-c3cccc(F)c3)nc2C1 (stereo not drawn) [Example 2.8, N-(2-(3-fluorophenyl)-5,6,7,8-tetrahydroimidazo[1,2-a]pyridin-7-yl)-1-methyl-4-(4-(trifluoromethyl)thiazol-2-yl)-1H-pyrazole-5-carboxamide]
< 5 nM | Cc1nccnc1-c1cnn(C)c1C(=O)Nc1cc2nc(-c3ccccc3)nn2cc1F [Example 3.32, N-(6-fluoro-2-phenyl-[1,2,4]triazolo[1,5-a]pyridin-7-yl)-1-methyl-4-(3-methylpyrazin-2-yl)-1H-pyrazole-5-carboxamide]
< 5 nM | COc1nccnc1-c1cnn(C)c1C(=O)Nc1cc2nc(-c3ccccc3)nn2cc1F [Example 3.28, N-(6-fluoro-2-phenyl-[1,2,4]triazolo[1,5-a]pyridin-7-yl)-4-(3-methoxypyrazin-2-yl)-1-methyl-1H-pyrazole-5-carboxamide]
< 5 nM | Cc1nc(-c2cnn(C)c2C(=O)NC2CCn3cc(-c4ccccc4)nc3C2)cs1 (stereo not drawn) [Example 2.12, 1-methyl-4-(2-methylthiazol-4-yl)-N-(2-phenyl-5,6,7,8-tetrahydroimidazo[1,2-a]pyridin-7-yl)-1H-pyrazole-5-carboxamide]

Reference: patent publication US9777000B2, “Pyrazole derivative” (MOCHIDA PHARMACEUTICAL CO., LTD., priority 2013, dated 2017)
